Consider one molecule from patent US6613358B2, “Sustained-release composition including amorphous polymer” (priority 1998, dated 2003).

Where “and” joins values, the source holds several entries; their conditions need not be identical. Equal values may be shown once.

For one data set, the system named is CCRF-CEM cells. Nature of the data set: Cytotoxicity, MTS cell proliferation assay. In kind it is cell-based, human. Here is the method: (§1) The cytotoxicity of arginine dodecyl ester was investigated in cell culture with two types of cells (see Cory et al, Cancer Commun., 3, 207-212 (1991)): CCRF-CEM cells, a human T-cell leukemia cell line that grows in suspension (obtained from the American Type Culture Collection, ATCC); and a green monkey kidney cell line (COS-7) that grows in monolayers (also obtained from ATCC). For comparison, the cells were also exposed to […] bromide (DTAB) (Sigma).
(§2) Cells were plated into 96-well plates (Corning) in a total of 200 μL Dulbecco's modified minimal essential medium for COS-7 cells, RPMI 1640 for CEM cells, supplemented with penicillin G (50 U/ml), streptomycin sulfate (50 μg/ml), and 10% fetal calf serum, at 10,000 cells/well for COS-7 and 50,000 cells/well for CEM cells. The plates were incubated at 37° C. for 24 hours after plating. The cells were then exposed to various concentrations of the detergents. Each detergent concentration was used in 8 replicate wells. After 2-6 hours, media/detergent solutions were aspirated, and the wells were washed twice with PBS. For CEM suspension cells, centrifugation of the suspension at 1000× g for 5 min between each wash was required. After washing, 200 μL of fresh medium were added, and the cells were incubated for 72 hours. After 72 hours, cell proliferation was determined using the Promega CellTiter 96 AQueous Non-Radioactive Cell Proliferation Assay.
For orientation: Formazan colour is commonly taken as a measure of viable cells.

For data set [1], the system named is COS-7 cells. Nature of the data set: Transfection of plasmid pRSV400luc, luciferase activity. In kind it is cell-based, green monkey. To be noted: without liposomes or helper lipids; serum-containing medium. An excerpt:
The plasmid used was pRSV400luc. It was obtained from Dr. David Gordon Div. Endocrinology, University of Colorado School of Medicine, Denver, Colo. It was propagated in Escherichia coil strain DH5a (ATCC), isolated by a standard alkaline-SDS Iysis procedure, and purified twice by isopycnic centrifugation on CsCl gradients (Sambrook et al, Molecular Cloning: A Laboratory Manual (Cold Spring Harbor Laboratory) (1989). COS-7 cells at approximately 50,000 cells per 60 mm diameter plate (Falcon) were used for transfection. Control experiments were done with Lipofectamine (GIBCO/Life Technologies, Gaithersburg, Md.).
In 200 total μl of serum-free medium, plasmid (20 μg) and Lipofectamine or arginine dodecyl ester were mixed and allowed to interact for 45 minutes. […] Plates with cells were washed with serum-free medium. Then, 1 mL serum-free medium was added to plates already containing 2 mL serum-free medium and the plates were incubated at 37° C. for 4 hours. […]
After allowing cells to grow and express gene product for 36-50 hours, the cells were harvested. […] Intensity of luminescence should be proportional to the amount of expressed luciferase and, therefore, the efficiency of transfection. “Background” is the reading from just the substrate mixture on the luminometer before addition of cell lysate. […] Any reading over 100 units is considered significant.

Data set [2] can be described thus: Surface tension, critical micelle concentration. The format is physicochemical. To be noted: in 0.1 N HCl. As for the experimental part: Surface tension was measured using a Fisher surface tensiometer. Briefly, a platinum iridium ring with a diameter of 6 cm was lowered into the appropriate dilution of detergent in 0.1 N HCl. Surface tension was read at the point where the force on the ring upwards caused the ring to break contact with the liquid surface.

In data set [3] the test system is COS-7 cells. The experiment in a line: Cytotoxicity, MTS cell proliferation assay. The format is cell-based, green monkey. As for the experimental part:
as §1
as §2, with “After washing, 200 μL of fresh medium were added, and the cells were incubated for 72 hours.” left out, “Assay. […]” for “Assay.”

Consider `CCCCCCCCCCCCOC(=O)[C@@H](N)CCCNC(=N)N` [arginine dodecyl ester], for which the “toxicity relative to DTAB” value in the data set on CCRF-CEM cells is “seven-fold less toxicity”; in the data set on COS-7 cells [3] it was “approximately two-fold less toxicity”. Besides, the IC50 – broadly, the concentration at which inhibition is half-maximal – with CCRF-CEM cells (Homo sapiens, 2-6 hours exposure, 72 hours incubation, read-out: IC50 (half-maximal growth inhibition)) was 150 µM. In addition, the “transfection of the plasmid” value with COS-7 cells [1] was “promoted transfection of the plasmid in a concentration and time dependent manner”. In data set [2], the “critical micelle concentration (cmc)” value was “approximately 0.3 mM and ~0.10 mg/ml”.
